{"source": "patent US10428140B2", "about": "“Anti-EphA4 antibody” (EISAI R&D MANAGEMENT CO., LTD., priority 2015, dated 2019)", "molecular_target": "T1, mouse EphA4 (binding to mouse Ephrin A1) (Mus musculus, UniProt Q03137)", "T1 construct": "made in house; host or cells: HEK293EBNA cells", "T1 sequence (Q03137 with tags, fused parts or gaps)": "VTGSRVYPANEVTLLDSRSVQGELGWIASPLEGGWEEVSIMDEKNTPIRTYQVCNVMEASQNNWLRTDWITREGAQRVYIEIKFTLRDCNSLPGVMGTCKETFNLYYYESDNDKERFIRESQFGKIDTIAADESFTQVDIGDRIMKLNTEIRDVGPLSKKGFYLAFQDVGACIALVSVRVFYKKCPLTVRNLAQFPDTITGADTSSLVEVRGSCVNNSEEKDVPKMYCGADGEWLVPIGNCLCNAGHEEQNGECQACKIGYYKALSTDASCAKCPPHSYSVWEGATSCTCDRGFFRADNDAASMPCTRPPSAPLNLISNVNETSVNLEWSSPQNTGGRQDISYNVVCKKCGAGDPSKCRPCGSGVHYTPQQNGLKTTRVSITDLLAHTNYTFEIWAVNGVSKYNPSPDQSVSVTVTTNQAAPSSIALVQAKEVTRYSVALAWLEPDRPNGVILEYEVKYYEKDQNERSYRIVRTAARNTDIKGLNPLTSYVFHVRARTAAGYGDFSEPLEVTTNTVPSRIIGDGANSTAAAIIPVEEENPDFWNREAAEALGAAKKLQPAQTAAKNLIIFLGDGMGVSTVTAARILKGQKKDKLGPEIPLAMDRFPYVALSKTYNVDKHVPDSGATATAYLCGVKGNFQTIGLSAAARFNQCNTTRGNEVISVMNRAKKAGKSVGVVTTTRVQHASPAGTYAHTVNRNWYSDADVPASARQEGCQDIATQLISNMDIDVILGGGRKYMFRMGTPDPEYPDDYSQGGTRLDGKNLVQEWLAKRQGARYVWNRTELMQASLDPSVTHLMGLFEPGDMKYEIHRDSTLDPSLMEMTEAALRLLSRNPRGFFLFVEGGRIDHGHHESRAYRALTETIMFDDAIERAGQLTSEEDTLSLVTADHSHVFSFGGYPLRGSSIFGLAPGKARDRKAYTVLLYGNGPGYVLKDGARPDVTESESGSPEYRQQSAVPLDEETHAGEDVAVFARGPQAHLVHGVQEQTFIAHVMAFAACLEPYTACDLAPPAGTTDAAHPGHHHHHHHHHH", "test": "Mouse EphA4-mouse ligand binding inhibition ELISA (Ephrin A1-Fc)", "details": "mouse Ephrin A1 and Ephrin B2; 0.03-1000 μM", "experimental": "Antibody A obtained in Example 1 was evaluated for its inhibitory activity against the binding between mouse EphA4 and its mouse ligand according to the following steps. Each well of a 96-well plate (Nunc) was coated with an anti-alkaline phosphatase antibody (Thermo Fisher Scientific). After incubation overnight at 4° C., each well was blocked with 1% BlockAce (DS Pharma Biomedical) at room temperature for 1 hour. After washing with 0.05% Tween 20/PBS (Thermo Fisher Scientific) three times, the mouse EphA4 extracellular region-SEAP-His protein obtained by the method of Example 1 was added (final concentration: 10 nM) to each well and incubated at room temperature for 1 hour. After washing three times, ligands and serially diluted antibody A (0, 0.001, 0.003, 0.01, 0.03, 0.1, 0.3, 1,3, 10, 30, 100, 300, and 1000 nM) or a known EphA4 inhibitor KYL peptide (KYLPYWPVLSSL, 0, 0.003, 0.01, 0.03, 0.1, 0.3, 1, 3, 10, 30, and 100 μM, its synthesis was outsourced to Hokkaido System Science) or compound 1 (0, 0.03, 0.1, 0.3, 1,3, 10, 30, 100, 300, and 1000 μM, Formula 1, Matrix Scientific) were added to each well. The ligands used were mouse Ephrin A1-Fc chimera (R&D Systems, final concentration: 20 nM) and mouse Ephrin B2-Fc chimera (R&D Systems, final concentration: 0.6 nM). […] The absorbance at 450 nm was read using a microplate reader (Molecular Devices)."}
{"compound": "Cc1ccc(C)n1-c1ccc(C(=O)O)c(O)c1", "note": "[Compound 1, reference compound]", "values": [{"measurement": "inhibition of binding between mouse EphA4 and mouse ligand (in words)", "value": "weaker activity, and no concentration dependence was found"}]}
